Patent publication US6451736B1, “Substituted aromatic thiocarboxylic acid amides and their use as herbicides” (Bayer Aktiengesellschaft, priority 1994, dated 2002)

Tests used:
Type in all cases: in vivo
Abuthilon [1] = assay: Pre-emergence test/greenhouse; details: Table B, after three weeks
Protocol: (§1) To produce a suitable preparation of active compound, 1 part by weight of active compound is mixed with the stated amount of solvent, the stated amount of emulsifier is added and the concentrate is diluted with water to the desired concentration.
(§2) Seeds of the test plants are sown in normal soil and, after 24 hours, watered with the preparation of active compound. It is expedient to keep constant the amount of water per unit area. The concentration of the active compound in the preparation is of no importance, only the amount of active compound applied per unit area being decisive. After three weeks, the degree of damage to the plants is rated in % damage in comparison to the development of the untreated control. The figures denote:
(§3) 0%=no action (like untreated control)

Amaranthus [2] = assay: Pre-emergence test/greenhouse; details: after three weeks
Protocol: as §1, §2, §3

Barley = assay: Pre-emergence test/greenhouse; details: Table A, 125 g/ha, after three weeks
Protocol: as §1, §2, §3

Chenopodium [3] = assay: Pre-emergence test/greenhouse; details: after three weeks
Protocol: as §1, §2, §3

Maize [4] = assay: Pre-emergence test/greenhouse; details: after three weeks
Protocol: as §1, §2, §3

Matricaria = assay: Pre-emergence test/greenhouse; details: after three weeks
Protocol: as §1, §2, §3

Portulaca = assay: Pre-emergence test/greenhouse; details: after three weeks
Protocol: as §1, §2, §3

Solanum [5] = assay: Pre-emergence test/greenhouse; details: after three weeks
Protocol: as §1, §2, §3

Wheat [6] = assay: Pre-emergence test/greenhouse; details: Table B, after three weeks
Protocol: as §1, §2, §3

Abuthilon [7] = assay: Post-emergence test/greenhouse; details: Table C, after three weeks
Protocol: as §1
(§4) Test plants which have a height of 5-15 cm are sprayed with the preparation of active compound in such a way as to apply the particular amounts of active compound desired per unit area. After three weeks, the degree of damage to the plants is rated in % damage in comparison to the development of the untreated control.
(§5) 0%=no action (like intreated control)

Amaranthus [8] = assay: Post-emergence test/greenhouse; details: Table C, after three weeks
Protocol: as §1, §4, §5

Chenopodium [9] = assay: Post-emergence test/greenhouse; details: Table C, after three weeks
Protocol: as §1, §4, §5

Maize [10] = assay: Post-emergence test/greenhouse; details: Table C, after three weeks
Protocol: as §1, §4, §5

Solanum [11] = assay: Post-emergence test/greenhouse; details: Table C, after three weeks
Protocol: as §1, §4, §5

Veronica = assay: Post-emergence test/greenhouse; details: Table C, after three weeks
Protocol: as §1, §4, §5

Wheat [12] = assay: Post-emergence test/greenhouse; details: Table C, after three weeks
Protocol: as §1, §4, §5

Row | Compound | degree of damage, Abuthilon (Abuthilon [7]; 60 g/ha) [%] | degree of damage, Amaranthus (Amaranthus [8]; 60 g/ha) [%] | degree of damage, Chenopodium (Chenopodium [9]; 60 g/ha) [%] | degree of damage, Maize (Maize [10]; 60 g/ha) [%] | degree of damage, Solanum (Solanum [11]; 60 g/ha) [%] | degree of damage, Veronica (Veronica; 60 g/ha) [%] | degree of damage, Wheat (Wheat [12]; 60 g/ha) [%] | degree of damage, Abuthilon (Abuthilon [7]; 15 g/ha) [%] | degree of damage, Amaranthus (Amaranthus [8]; 15 g/ha) [%] | degree of damage, Chenopodium (Chenopodium [9]; 15 g/ha) [%] | degree of damage, Maize (Maize [10]; 15 g/ha) [%] | degree of damage, Solanum (Solanum [11]; 15 g/ha) [%] | degree of damage, Abuthilon (Abuthilon [1]; 60 g/ha) [%] | degree of damage, Amaranthus (Amaranthus [2]; Table B, 60 g/ha) [%] | degree of damage, Chenopodium (Chenopodium [3]; Table B, 60 g/ha) [%] | degree of damage, Maize (Maize [4]; Table B, 60 g/ha) [%] | degree of damage, Matricaria (Matricaria; Table B, 60 g/ha) [%] | degree of damage, Portulaca (Portulaca; Table B, 60 g/ha) [%] | degree of damage, Solanum (Solanum [5]; Table B, 60 g/ha) [%] | degree of damage, Wheat (Wheat [6]; 60 g/ha) [%] | also measured
1 | CCN(CC)CC.CCS(=O)(=O)Nc1cc(-n2nc(C)n(NC)c2=O)c(F)cc1C(N)=S [Example 7] | 100 | 100 | 95 | 50 | 100 | 95 | 10 |  |  |  |  |  |  |  |  |  |  |  |  |  | degree of damage, Abuthilon (Abuthilon [1]; 125 g/ha): 95%; degree of damage, Amaranthus (Amaranthus [2]; Table A, 125 g/ha): 100%; degree of damage, Amaranthus (Amaranthus [2]; Table B, 125 g/ha): 100%; degree of damage, Barley (Barley): 30%; degree of damage, Chenopodium (Chenopodium [3]; Table A, 125 g/ha): 100%; degree of damage, Chenopodium (Chenopodium [3]; Table B, 125 g/ha): 100%; degree of damage, Maize (Maize [4]; Table A, 125 g/ha): 0%; degree of damage, Maize (Maize [4]; Table B, 125 g/ha): 0%; degree of damage, Matricaria (Matricaria; Table A, 125 g/ha): 95%; degree of damage, Matricaria (Matricaria; Table B, 125 g/ha): 95%; degree of damage, Portulaca (Portulaca; Table A, 125 g/ha): 100%; degree of damage, Portulaca (Portulaca; Table B, 125 g/ha): 100%; degree of damage, Solanum (Solanum [5]; Table A, 125 g/ha): 95%; degree of damage, Solanum (Solanum [5]; Table B, 125 g/ha): 95%; degree of damage, Wheat (Wheat [6]; 125 g/ha): 50%
2 | CCS(=O)(=O)Nc1cc(-n2nc3n(c2=O)CCCC3)c(F)cc1C(N)=S [Example 1, 2-(2-fluoro-5-ethylsulphonylamino-4-thiocarbamoyl-phenyl)-5,6,7,8-tetrahydro-1,2,4-triazolo[4,3-a]pyridin-3(2H)-one] |  |  |  |  |  |  |  | 100 | 95 | 95 | 50 | 100 |  |  |  |  |  |  |  |  | degree of damage, Abuthilon (Abuthilon [1]; 125 g/ha): 100%; degree of damage, Amaranthus (Amaranthus [2]; Table B, 125 g/ha): 100%; degree of damage, Chenopodium (Chenopodium [3]; Table B, 125 g/ha): 100%; degree of damage, Maize (Maize [4]; Table B, 125 g/ha): 0%; degree of damage, Matricaria (Matricaria; Table B, 125 g/ha): 95%; degree of damage, Portulaca (Portulaca; Table B, 125 g/ha): 100%; degree of damage, Solanum (Solanum [5]; Table B, 125 g/ha): 100%; degree of damage, Wheat (Wheat [6]; 125 g/ha): 0%; degree of damage, Veronica (Veronica; 15 g/ha): 100%; degree of damage, Wheat (Wheat [12]; 15 g/ha): 10%
3 | CCn1c(C(F)(F)F)nn(-c2cc(N(C)S(=O)(=O)CC)c(C(N)=S)cc2F)c1=O [Example 16] | 95 | 100 | 100 | 60 | 100 | 100 | 20 |  |  |  |  |  | 95 | 20 | 100 | 0 | 90 | 80 | 80 | 10 | 
4 | CC(C)Oc1cc(N2C(=O)C3CCCCN3C2=O)c(F)cc1C(N)=S (stereo not shown) [Example 46] |  |  |  |  |  |  |  |  |  |  |  |  | 100 | 100 | 100 | 70 | 100 | 100 | 100 | 0 | degree of damage, Abuthilon (Abuthilon [7]; 8 g/ha): 100%; degree of damage, Amaranthus (Amaranthus [8]; 8 g/ha): 100%; degree of damage, Chenopodium (Chenopodium [9]; 8 g/ha): 95%; degree of damage, Maize (Maize [10]; 8 g/ha): 20%; degree of damage, Solanum (Solanum [11]; 8 g/ha): 100%; degree of damage, Veronica (Veronica; 8 g/ha): 100%; degree of damage, Wheat (Wheat [12]; 8 g/ha): 15%
5 | Cn1c(C(F)F)nn(-c2cc(F)c(C(N)=S)cc2F)c1=S [Example 8] | 100 | 100 | 100 | 30 | 100 | 100 | 10 |  |  |  |  |  | 100 | 100 | 100 | 0 | 95 | 95 | 100 | 40 | 
6 | CCS(=O)(=O)Nc1cc(-n2c(=O)cc(C(F)(F)F)n(C)c2=S)c(F)cc1C(N)=S [Example 21] |  |  |  |  |  |  |  |  |  |  |  |  | 100 | 100 | 100 | 0 | 100 | 100 | 100 | 0 | degree of damage, Abuthilon (Abuthilon [7]; 4 g/ha): 90%; degree of damage, Amaranthus (Amaranthus [8]; 4 g/ha): 100%; degree of damage, Chenopodium (Chenopodium [9]; 4 g/ha): 70%; degree of damage, Maize (Maize [10]; 4 g/ha): 60%; degree of damage, Solanum (Solanum [11]; 4 g/ha): 100%; degree of damage, Veronica (Veronica; 4 g/ha): 100%; degree of damage, Wheat (Wheat [12]; 4 g/ha): 5%
7 | Cn1c(C(F)(F)F)nn(-c2cc(NS(C)(=O)=O)c(C(N)=S)cc2F)c1=S [Example 34] |  |  |  |  |  |  |  | 100 | 100 | 100 | 30 | 100 | 100 | 100 | 100 | 0 | 100 | 100 | 100 | 0 | degree of damage, Veronica (Veronica; 15 g/ha): 100%; degree of damage, Wheat (Wheat [12]; 15 g/ha): 0%
8 | CCOc1cc(N2C(=O)C3CCCCN3C2=O)c(F)cc1C(N)=S (stereo not shown) [Example 47] |  |  |  |  |  |  |  |  |  |  |  |  |  |  |  |  |  |  |  |  | degree of damage, Abuthilon (Abuthilon [1]; 30 g/ha): 100%; degree of damage, Amaranthus (Amaranthus [2]; Table B, 30 g/ha): 95%; degree of damage, Chenopodium (Chenopodium [3]; Table B, 30 g/ha): 100%; degree of damage, Maize (Maize [4]; Table B, 30 g/ha): 0%; degree of damage, Matricaria (Matricaria; Table B, 30 g/ha): 100%; degree of damage, Portulaca (Portulaca; Table B, 30 g/ha): 100%; degree of damage, Solanum (Solanum [5]; Table B, 30 g/ha): 100%; degree of damage, Wheat (Wheat [6]; 30 g/ha): 0%; degree of damage, Abuthilon (Abuthilon [7]; 8 g/ha): 100%; degree of damage, Amaranthus (Amaranthus [8]; 8 g/ha): 100%; degree of damage, Chenopodium (Chenopodium [9]; 8 g/ha): 95%; degree of damage, Maize (Maize [10]; 8 g/ha): 10%; degree of damage, Solanum (Solanum [11]; 8 g/ha): 100%; degree of damage, Veronica (Veronica; 8 g/ha): 100%; degree of damage, Wheat (Wheat [12]; 8 g/ha): 10%
9 | Cn1c(C(F)(F)F)cc(=O)n(-c2cc(NS(C)(=O)=O)c(C(N)=S)cc2F)c1=S [Example 26] |  |  |  |  |  |  |  | 50 | 90 | 50 | 30 | 50 | 100 | 80 | 100 | 0 | 100 | 100 | 90 | 0 | degree of damage, Veronica (Veronica; 15 g/ha): 100%; degree of damage, Wheat (Wheat [12]; 15 g/ha): 0%
